# Laboratory results as given in patent publication US20200239530A1, “COMPOUNDS AND METHODS OF MODULATING PROTEIN DEGRADATION” (Vividion Therapeutics, Inc., priority 2017, published 2020).
# Experiments:
# Experiment in all cases: Cysteine liganding, probe competition
# Assay type in all cases: binding
# [1] = molecular target: T1, CEP44 Centrosomal protein of 44 kDa (Homo sapiens, UniProt Q9C0F1)
# T1 construct: 200 μL of lysate containing 5 mg/ml proteome was treated with 2 μL of 100× compound stock; endogenous in cells
# T1 sequence (Q9C0F1 1-390): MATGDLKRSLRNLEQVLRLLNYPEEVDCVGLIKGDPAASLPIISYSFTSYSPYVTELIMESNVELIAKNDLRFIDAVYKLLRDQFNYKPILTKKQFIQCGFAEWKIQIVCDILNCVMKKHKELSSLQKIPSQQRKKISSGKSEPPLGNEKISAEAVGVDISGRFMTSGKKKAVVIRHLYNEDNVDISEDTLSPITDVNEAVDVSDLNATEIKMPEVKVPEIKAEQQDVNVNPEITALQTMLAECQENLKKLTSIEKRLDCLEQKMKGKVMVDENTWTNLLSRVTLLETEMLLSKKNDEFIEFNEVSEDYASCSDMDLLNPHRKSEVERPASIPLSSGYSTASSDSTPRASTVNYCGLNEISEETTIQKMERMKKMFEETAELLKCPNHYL
# How it was run: (§1)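 Probe competition in native proteome: 5 mg/ml lysate, compound 1 hr 25° C, then desthiobiotin iodoacetamide (10 mM stock) 1 hr 25° C; acetone ppt, urea/DTT reduction, iodoacetamide alkylation, trypsin, streptavidin pull-down.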
# [2] = molecular target: T2, IDH2 Isocitrate dehydrogenase (Homo sapiens, UniProt P48735)
# T2 construct: Cells were resuspended in cold PBS on ice and sonicated with a probe sonicator to achieve lysis; endogenous in cells
# T2 sequence (P48735 40-452): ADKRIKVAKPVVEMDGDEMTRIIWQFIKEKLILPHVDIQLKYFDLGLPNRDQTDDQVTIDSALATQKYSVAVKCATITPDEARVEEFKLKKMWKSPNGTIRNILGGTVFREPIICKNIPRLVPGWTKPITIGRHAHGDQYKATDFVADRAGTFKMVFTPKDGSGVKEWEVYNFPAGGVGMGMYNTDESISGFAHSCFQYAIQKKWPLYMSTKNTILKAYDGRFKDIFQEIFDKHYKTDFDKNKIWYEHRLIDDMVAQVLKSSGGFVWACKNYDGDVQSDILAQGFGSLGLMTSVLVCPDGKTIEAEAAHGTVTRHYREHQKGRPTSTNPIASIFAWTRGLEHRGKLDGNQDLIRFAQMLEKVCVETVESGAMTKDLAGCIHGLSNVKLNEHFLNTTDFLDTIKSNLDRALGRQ
# How it was run: as §1
# [3] = molecular target: T3, EEF1A1 Elongation factor 1-alpha 1 (Homo sapiens, UniProt P68104)
# T3 construct: 200 μL of lysate containing 5 mg/ml proteome was treated with 2 μL of 100× compound stock; endogenous in cells
# T3 sequence (P68104 1-462): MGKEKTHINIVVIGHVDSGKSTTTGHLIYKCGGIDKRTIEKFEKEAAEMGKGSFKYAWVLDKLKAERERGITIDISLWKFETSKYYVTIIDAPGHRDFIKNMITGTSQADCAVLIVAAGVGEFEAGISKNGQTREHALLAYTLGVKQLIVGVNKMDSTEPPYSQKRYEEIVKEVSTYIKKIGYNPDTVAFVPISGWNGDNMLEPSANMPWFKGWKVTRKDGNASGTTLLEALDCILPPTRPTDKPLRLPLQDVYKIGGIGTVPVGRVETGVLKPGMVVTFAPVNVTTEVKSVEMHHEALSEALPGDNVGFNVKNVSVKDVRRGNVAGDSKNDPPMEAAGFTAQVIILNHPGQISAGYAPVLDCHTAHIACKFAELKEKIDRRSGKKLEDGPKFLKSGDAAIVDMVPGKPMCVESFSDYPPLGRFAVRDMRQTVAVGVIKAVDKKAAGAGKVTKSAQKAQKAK
# How it was run: as §1
# [4] = EEF1A1 Res# 363, uniprot P68104
# [5] = EEF1A1 Res# 370, uniprot P68104
SMILES,"Liganded ([1]; CEP44 Res# 28, uniprot Q9C0F1)","Liganded ([2]; IDH2 Res# 154, uniprot P48735)","Liganded [3, 4]","Liganded [3, 5]",100 ave ([1]; uniprot Q9C0F1),500 ave ([1]; uniprot Q9C0F1),"100 Max ([1]; uniprot Q9C0F1, in % (unit assumed))","500 Max ([1]; uniprot Q9C0F1, unit assumed) [%]",100 Max ([2]; uniprot P48735),100 ave ([2]; uniprot P48735),500 Max ([2]; uniprot P48735),500 ave ([2]; uniprot P48735)
COc1ccc2c(c1)CCCN2C(=O)CCl [KB02],YES,YES,YES,YES,–,–,–,–,–,–,–,–
O=C(CCl)Nc1cc(C(F)(F)F)cc(C(F)(F)F)c1 [KBO3],–,–,YES,YES,14.85,69.9,14.85,69.9,63.35,43.06,73.43,70.11
